Test results reported in patent US9586951B2 (FUJIFILM Corporation, priority 2013, dated 2017).

Tests used:
[1] = test system: human non-small cell lung cancer cell line NCI-H460; assay: Cell proliferation inhibition test by sensitivity-enhancing to ionizing radiation (Cell Titer Glo); assay type: cell-based; conditions: concentration in which SER became 2, NCI-H460 cells, ionizing radiation 2 Gy, cultured 120 hour
Summary of the method: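 Cells seeded at 2×10^3 cells/mL in RPMI-1640 with 10% FBS; after 24 h, compound added (0.1% DMSO), and 30 min later half the plates irradiated at 2 Gy. After 120 hour at 37° C, viability by Cell Titer Glo luminescence; SER2 is the concentration giving SER of 2 by sigmoidal fit.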

ATM = molecular target: T1, ATM (Homo sapiens, UniProt Q13315); assay: ATM inhibition test (phosphorylation of Chk2 generated by ionizing radiation, AlphaScreen SureFire); assay type: cell-based; conditions: phosphorylated Chk2 in NCI-H460 cells, ionizing radiation 8Gy, 1 hour after test compound treatment; read-out: ATM inhibitory activity
T1 construct: detecting phosphorylation of Chk2 in a human non-small cell lung cancer cell line NCI-H460 (ATCC company); host or cells: NCI-H460 human non-small cell lung cancer cells
T1 sequence (Q13315 whole entry): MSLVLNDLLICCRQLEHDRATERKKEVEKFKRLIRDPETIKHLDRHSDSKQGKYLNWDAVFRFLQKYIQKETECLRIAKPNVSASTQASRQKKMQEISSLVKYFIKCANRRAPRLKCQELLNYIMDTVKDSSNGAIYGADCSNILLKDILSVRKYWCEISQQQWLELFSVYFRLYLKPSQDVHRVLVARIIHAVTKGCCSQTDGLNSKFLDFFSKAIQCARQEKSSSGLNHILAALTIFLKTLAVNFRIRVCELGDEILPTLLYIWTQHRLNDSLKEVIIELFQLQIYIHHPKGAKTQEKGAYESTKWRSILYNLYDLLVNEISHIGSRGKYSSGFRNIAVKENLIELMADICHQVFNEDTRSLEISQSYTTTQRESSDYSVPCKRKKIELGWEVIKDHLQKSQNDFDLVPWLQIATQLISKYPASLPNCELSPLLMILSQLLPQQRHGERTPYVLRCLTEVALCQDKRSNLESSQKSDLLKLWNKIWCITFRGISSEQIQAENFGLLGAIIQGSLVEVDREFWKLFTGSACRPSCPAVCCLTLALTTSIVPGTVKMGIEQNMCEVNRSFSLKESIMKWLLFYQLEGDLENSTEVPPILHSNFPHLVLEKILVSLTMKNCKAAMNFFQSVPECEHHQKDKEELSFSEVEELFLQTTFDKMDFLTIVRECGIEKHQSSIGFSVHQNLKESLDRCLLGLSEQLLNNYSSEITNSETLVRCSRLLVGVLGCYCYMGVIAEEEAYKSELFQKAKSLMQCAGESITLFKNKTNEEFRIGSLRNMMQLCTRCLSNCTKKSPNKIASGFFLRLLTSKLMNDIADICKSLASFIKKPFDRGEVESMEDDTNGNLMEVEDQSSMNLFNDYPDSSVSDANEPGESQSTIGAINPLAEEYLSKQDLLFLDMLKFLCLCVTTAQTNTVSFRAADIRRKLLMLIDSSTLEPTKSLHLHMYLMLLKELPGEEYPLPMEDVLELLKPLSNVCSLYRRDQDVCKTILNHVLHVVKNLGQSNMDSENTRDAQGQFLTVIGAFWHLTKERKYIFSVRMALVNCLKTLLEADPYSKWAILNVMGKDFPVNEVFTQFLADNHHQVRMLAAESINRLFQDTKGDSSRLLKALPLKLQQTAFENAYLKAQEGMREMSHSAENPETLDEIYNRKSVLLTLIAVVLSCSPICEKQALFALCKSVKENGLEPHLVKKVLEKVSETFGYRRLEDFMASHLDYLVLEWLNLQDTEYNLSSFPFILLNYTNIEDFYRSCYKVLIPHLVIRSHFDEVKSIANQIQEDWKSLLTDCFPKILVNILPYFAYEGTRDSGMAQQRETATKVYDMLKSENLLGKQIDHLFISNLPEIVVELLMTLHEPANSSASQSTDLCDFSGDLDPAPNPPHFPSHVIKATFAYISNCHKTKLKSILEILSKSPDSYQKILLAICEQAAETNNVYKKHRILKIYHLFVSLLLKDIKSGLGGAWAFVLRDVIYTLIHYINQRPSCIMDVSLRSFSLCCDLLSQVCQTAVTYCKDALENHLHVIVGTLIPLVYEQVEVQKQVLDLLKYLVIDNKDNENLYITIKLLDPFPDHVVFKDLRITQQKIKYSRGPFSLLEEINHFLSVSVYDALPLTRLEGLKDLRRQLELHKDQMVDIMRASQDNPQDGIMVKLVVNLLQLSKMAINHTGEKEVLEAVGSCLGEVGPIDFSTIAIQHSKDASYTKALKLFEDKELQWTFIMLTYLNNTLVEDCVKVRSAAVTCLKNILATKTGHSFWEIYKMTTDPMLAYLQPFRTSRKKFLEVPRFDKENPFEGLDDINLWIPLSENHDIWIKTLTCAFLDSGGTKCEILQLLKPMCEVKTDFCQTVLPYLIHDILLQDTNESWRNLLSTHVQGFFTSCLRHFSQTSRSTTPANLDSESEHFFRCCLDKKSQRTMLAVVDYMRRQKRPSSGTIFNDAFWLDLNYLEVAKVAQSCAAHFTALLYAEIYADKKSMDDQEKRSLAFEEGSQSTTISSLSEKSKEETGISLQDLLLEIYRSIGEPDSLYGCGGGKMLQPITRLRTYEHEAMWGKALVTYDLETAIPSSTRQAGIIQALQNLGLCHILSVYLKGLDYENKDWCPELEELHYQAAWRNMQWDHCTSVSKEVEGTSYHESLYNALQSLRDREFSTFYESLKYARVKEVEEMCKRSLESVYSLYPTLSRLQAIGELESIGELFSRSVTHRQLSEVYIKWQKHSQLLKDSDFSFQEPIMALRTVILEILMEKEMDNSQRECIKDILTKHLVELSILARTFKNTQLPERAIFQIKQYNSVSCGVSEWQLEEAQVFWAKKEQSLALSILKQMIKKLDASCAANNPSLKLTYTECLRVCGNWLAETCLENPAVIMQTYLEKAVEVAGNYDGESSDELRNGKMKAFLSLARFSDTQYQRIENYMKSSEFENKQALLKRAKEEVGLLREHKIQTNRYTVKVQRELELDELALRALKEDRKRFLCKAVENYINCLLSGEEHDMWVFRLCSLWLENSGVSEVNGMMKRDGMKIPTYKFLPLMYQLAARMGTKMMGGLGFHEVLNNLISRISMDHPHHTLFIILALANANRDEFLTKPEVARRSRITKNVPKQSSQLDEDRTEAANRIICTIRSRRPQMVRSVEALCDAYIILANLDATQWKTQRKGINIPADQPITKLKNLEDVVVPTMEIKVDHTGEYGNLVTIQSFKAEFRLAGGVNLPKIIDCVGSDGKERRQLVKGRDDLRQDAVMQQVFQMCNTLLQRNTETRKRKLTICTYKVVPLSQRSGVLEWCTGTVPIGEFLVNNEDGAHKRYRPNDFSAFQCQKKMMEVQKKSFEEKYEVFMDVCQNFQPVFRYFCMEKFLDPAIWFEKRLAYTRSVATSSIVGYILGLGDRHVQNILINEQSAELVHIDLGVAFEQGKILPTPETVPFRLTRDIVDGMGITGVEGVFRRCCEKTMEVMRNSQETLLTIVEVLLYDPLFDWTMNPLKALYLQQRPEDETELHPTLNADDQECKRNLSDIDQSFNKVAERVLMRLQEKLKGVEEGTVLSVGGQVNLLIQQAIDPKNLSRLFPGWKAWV
Summary of the method: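 In NCI-H460 cells, radiation-triggered Chk2 phosphorylation (8Gy, 1 h) is detected by AlphaScreen SureFire following 1 h compound exposure.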

Row | IC50 (ATM) | Structure (SMILES) | SER2 (concentration at which the radiation sensitivity-enhancement ratio reaches 2) ([1]; Homo sapiens, NCI-H460, 120 h) | SER2 (concentration at which the radiation sensitivity-enhancement ratio reaches 2) ([1]; Homo sapiens) | SER2 (concentration at which the radiation sensitivity-enhancement ratio reaches 2) [1]
1 | < 100 nM | N#Cc1cccc(CNc2ccc3c(c2)Sc2cccc(-c4cc(N5CCOCC5)cc(=O)[nH]4)c2S3)n1 [Example 1-12-38, 6-(((6-(4-Morpholino-6-oxo-1,6-dihydropyridin-2-yl)thianthren-2-yl)amino)methyl)picolinonitrile] | < 100 nM | – | –
2 | < 100 nM | Cc1cccc(CNc2ccc3c(c2)Cc2ccc(F)c(-c4cc(N5CCOCC5)cc(=O)[nH]4)c2O3)n1 [Example 2-46-4, 6-(3-Fluoro-7-(((6-methylpyridin-2-yl)methyl)amino)-9H-xanthen-4-yl)-4-morpholinopyridin-2(1H)-one] | 100 to 500 nM | – | –
3 | < 100 nM | O=c1cc(N2CCOCC2)cc(-c2cccc3c2Oc2ccc(NCc4cncc(-n5cccn5)c4)cc2S3)[nH]1 [Example 4-4-9, 6-(8-(((5-(1H-Pyrazol-1-yl)pyridin-3-yl)methyl)amino)phenoxathiin-4-yl)-4-morpholino pyridin-2(1H)-one] | 100 to 500 nM | – | –
4 | 100 to 500 nM | O=c1cc(N2CCOCC2)cc(-c2cccc3c2Oc2ccc(NCc4cncc(Cl)n4)cc2C3)[nH]1 [Example 2-13-1, 6-(7-(((6-chloropyrazin-2-yl)methyl)amino)-9H-xanthen-4-yl)-4-morpholinopyridin-2(1H)-one] | 500 to 2000 nM | – | –
5 | < 100 nM | COCC(Nc1ccc2c(c1)Sc1cccc(-c3cc(N4CCOCC4)cc(=O)[nH]3)c1S2)c1ccc(C)cn1 (stereo not shown) [Example 1-12-100, 6-(7-((2-Methoxy-1-(5-methylpyridin-2-yl)ethyl)amino)thianthren-1-yl)-4-morpholino pyridin-2(1H)-one] | < 100 nM | – | –
6 | < 100 nM | Cc1cnc(C(C)Nc2ccc3c(c2)Cc2cccc(-c4cc(N5CCOCC5)cc(=O)[nH]4)c2O3)cn1 (stereo not shown) [Example 2-14-24, 6-(7-((1-(5-Methylpyrazin-2-yl)ethyl)amino)-9H-xanthen-4-yl)-4-morpholino pyridin-2(1H)-one] | 100 to 500 nM | – | –
7 | < 100 nM | Cc1cnc(C(C)Nc2ccc3c(c2)Sc2cccc(-c4cc(N5CCOCC5)cc(=O)[nH]4)c2S3)cn1 (single isomer, unassigned) [Example 1-12-137-1, 6-(7-((1-(5-methylpyrazin-2-yl)ethyl)amino)thianthren-1-yl)-4-morpholinopyridin-2(1H)-one] | < 100 nM | – | –
8 | < 100 nM | COCc1cc(CNc2ccc3c(c2)Cc2cccc(-c4cc(N5CCOCC5)cc(=O)[nH]4)c2O3)ccn1 [Example 2-21-6, 6-(7-(((2-(Methoxymethyl)pyridin-4-yl)methyl)amino)-9H-xanthen-4-yl)-4-morpholino pyridin-2(1H)-one] | 500 to 2000 nM | – | –
9 | < 100 nM | Cc1ccc(C(Nc2ccc3c(c2)Sc2cccc(-c4cc(N5CCOCC5)cc(=O)[nH]4)c2S3)C2CC(N(C)C)C2)nc1 (single isomer, unassigned) [Example 1-50-9, 6-(7-(((3-(Dimethylamino)cyclobutyl)(5-methylpyridin-2-yl)methyl)amino)thianthren-1-yl)-4-morpholino pyridin-2 (1H)-one] | – | – | < 100 nM
10 | < 100 nM | O=c1cc(N2CCOCC2)cc(-c2cccc3c2Oc2ccc(NCc4ccnc(F)c4)cc2C3)[nH]1 [Example 2-21-2, 6-(7-(((2-Fluoropyridin-4-yl)methyl)amino)-9H-xanthen-4-yl)-4-morpholinopyridin-2 (1H)-one] | 100 to 500 nM | – | –
11 | < 100 nM | O=c1cc(N2CCOCC2)cc(-c2cccc3c2Sc2ccc(NC4CCCC4N4CCOCC4)cc2S3)[nH]1 (racemic) [Example 1-16-1-1, 4-morpholino-6-(7-((2-morpholinocyclopentyl)amino)thianthren-1-yl)pyridin-2(1H)-one] | < 100 nM | – | –
12 | < 100 nM | CNCC(Nc1ccc2c(c1)Sc1cccc(-c3cc(N4CCOCC4)cc(=O)[nH]3)c1S2)c1cc(C)ccn1 (stereo not shown) [Example 1-19-3, 6-(7-((2-(Methylamino)-1-(4-methylpyridin-2-yl)ethyl)amino)thianthren-1-yl)-4-morpholinopyridin-2(1H)-one] | 100 to 500 nM | – | –
13 | < 100 nM | Cc1ccc(C(Nc2ccc3c(c2)Sc2cccc(-c4cc(N5CCOCC5)cc(=O)[nH]4)c2S3)C2CC(N(C)C)C2)nc1 (single isomer, unassigned) [Example 1-50-8, 6-(7-(((3-(Dimethylamino)cyclobutyl)(5-methylpyridin-2-yl)methyl)amino)thianthren-1-yl)-4-morpholino pyridin-2(1H)-one] | < 100 nM | – | –
14 | < 100 nM | COc1ncccc1CN1CCC(Nc2ccc3c(c2)Cc2cccc(-c4cc(N5CCOCC5)cc(=O)[nH]4)c2O3)CC1 [Example 2-28-5, 6-(7-((1-((2-Methoxypyridin-3-yl)methyl)piperidin-4-yl)amino)-9H-xanthen-4-yl)-4-morpholino pyridin-2(1H)-one] | 500 to 2000 nM | – | –

More lines, now with the values behind:

Row | Structure (SMILES) | IC50 (ATM) | SER2 (concentration at which the radiation sensitivity-enhancement ratio reaches 2) ([1]; Homo sapiens, NCI-H460, 120 h) | SER2 (concentration at which the radiation sensitivity-enhancement ratio reaches 2) ([1]; Homo sapiens) | SER2 (concentration at which the radiation sensitivity-enhancement ratio reaches 2) [1]
15 | Cc1cccc(C(CCN2CCOCC2)Nc2ccc3c(c2)Sc2cccc(-c4cc(N5CCOCC5)cc(=O)[nH]4)c2S3)n1 (stereo not shown) [Example 1-34-4] | < 100 nM | < 100 nM | – | –
16 | O=c1cc(N2CCOCC2)cc(-c2cccc3c2Oc2ccc(NCc4cncc(Br)c4)cc2S3)[nH]1 [Example 4-8-22, 6-(8-(((5-Bromopyridin-3-yl)methyl)amino)phenoxathiin-4-yl)-4-morpholino pyridin-2(1H)-one] | < 100 nM | 100 to 500 nM | – | –
17 | Cc1ccnc(CNc2ccc3c(c2)Cc2ccc(F)c(-c4cc(N5CCOCC5)cc(=O)[nH]4)c2O3)c1 [Example 2-46-5, 6-(3-Fluoro-7-(((4-methylpyridin-2-yl)methyl)amino)-9H-xanthen-4-yl)-4-morpholinopyridin-2(1H)-one] | < 100 nM | 100 to 500 nM | – | –
18 | Cc1ccc(CNc2ccc3c(c2)Sc2cccc(-c4cc(N5CCOCC5)cc(=O)[nH]4)c2S3)nc1 [Example 1-12-13, 6-(7-(((5-Methylpyridin-2-yl)methyl)amino)thianthren-1-yl)-4-morpholino pyridin-2 (1H)-one] | < 100 nM | 100 to 500 nM | – | –
19 | Cc1ccc(C(C)Nc2ccc3c(c2)Sc2cccc(-c4cc(N5CCOCC5)cc(=O)[nH]4)c2S3)nc1 (single isomer, unassigned) [Example 1-12-143-1, 6-(7-((1-(5-methylpyridin-2-yl)ethyl)amino)thianthren-1-yl)-4-morpholinopyridin-2(1H)-one] | < 100 nM | < 100 nM | – | –
20 | O=c1cc(N2CCOCC2)cc(-c2nccc3c2Oc2ccc(NCc4cc(Cl)ccn4)cc2C3)[nH]1 [Example 2-41-3, 6-(7-(((4-Chloropyridin-2-yl)methyl)amino)-5H-chromeno [2,3-c]pyridin-1-yl)-4-morpholino pyridin-2(1H)-one] | < 100 nM | 100 to 500 nM | – | –
21 | CC1CN(CCNc2ccc3c(c2)Sc2cccc(-c4cc(N5CCOCC5)cc(=O)[nH]4)c2S3)CCO1 (stereo not shown) [Example 1-16-6, 6-(7-((2-(2-Methylmorpholino)ethyl)amino)thianthren-1-yl)-4-morpholinopyridin-2(1H)-one] | < 100 nM | – | 100 to 500 nM | –
22 | Cc1ccc(C(CCCN(C)C)Nc2ccc3c(c2)Sc2cccc(-c4cc(N5CCOCC5)cc(=O)[nH]4)c2S3)nc1 (stereo not shown) [Example 1-50-7, 6-(7-((4-(Dimethylamino)-1-(5-methylpyridin-2-yl)butyl)amino)thianthren-1-yl)-4-morpholino pyridin-2(1H)-one] | < 100 nM | 100 to 500 nM | – | –
23 | CCN(C)c1cncc(CNc2ccc3c(c2)Cc2cccc(-c4cc(N5CCOCC5)cc(=O)[nH]4)c2O3)c1 [Example 2-21-9, 6-(7-(((5-(Ethyl(methyl)amino)pyridin-3-yl)methyl)amino)-9H-xanthen-4-yl)-4-morpholino pyridin-2(1H)-one] | < 100 nM | 500 to 2000 nM | – | –
24 | N#Cc1cncc(CNc2ccc3c(c2)Cc2cccc(-c4cc(N5CCOCC5)cc(=O)[nH]4)c2O3)c1 [Example 2-14-7, 5-(((5-(4-Morpholino-6-oxo-1,6-dihydropyridin-2-yl)-9H-xanthen-2-yl)amino)methyl)nicotinonitrile] | < 100 nM | 500 to 2000 nM | – | –
25 | COCC(CN1CCOCC1)Nc1ccc2c(c1)Sc1cccc(-c3cc(N4CCOCC4)cc(=O)[nH]3)c1S2 (single isomer, unassigned) [Example 1-17-1-2, 6-(7-((1-methoxy-3-morpholinopropan-2-yl)amino)thianthren-1-yl)-4-morpholinopyridin-2(1H)-one] | < 100 nM | < 100 nM | – | –
26 | COc1ccnc(CNc2ccc3c(c2)Cc2cccc(-c4cc(N5CCOCC5)cc(=O)[nH]4)c2O3)n1 [Example 2-13-8, 6-(7-(((4-Methoxypyrimidin-2-yl)methyl)amino)-9H-xanthen-4-yl)-4-morpholino pyridin-2(1H)-one] | < 100 nM | 500 to 2000 nM | – | –
